Measurements from ChEMBL document CHEMBL4706517, “Discovery of novel berberine derivatives with balanced cholinesterase and prolyl oligopeptidase inhibition profile” (Eur J Med Chem, 2020).
Active and inactive are the calls of the source. No cut-off for these calls is given here.

How the values were obtained:
CHO-K1 = assay: Cytotoxicity against CHO-K1 cells assessed as reduction in cell viability measured after 24 hrs by MTT assay; assay type: cell-based, Cricetulus griseus
Prolyl endopeptidase = target: T1, Prolyl endopeptidase (Homo sapiens, UniProt P48147)
T1 sequence (P48147 whole entry): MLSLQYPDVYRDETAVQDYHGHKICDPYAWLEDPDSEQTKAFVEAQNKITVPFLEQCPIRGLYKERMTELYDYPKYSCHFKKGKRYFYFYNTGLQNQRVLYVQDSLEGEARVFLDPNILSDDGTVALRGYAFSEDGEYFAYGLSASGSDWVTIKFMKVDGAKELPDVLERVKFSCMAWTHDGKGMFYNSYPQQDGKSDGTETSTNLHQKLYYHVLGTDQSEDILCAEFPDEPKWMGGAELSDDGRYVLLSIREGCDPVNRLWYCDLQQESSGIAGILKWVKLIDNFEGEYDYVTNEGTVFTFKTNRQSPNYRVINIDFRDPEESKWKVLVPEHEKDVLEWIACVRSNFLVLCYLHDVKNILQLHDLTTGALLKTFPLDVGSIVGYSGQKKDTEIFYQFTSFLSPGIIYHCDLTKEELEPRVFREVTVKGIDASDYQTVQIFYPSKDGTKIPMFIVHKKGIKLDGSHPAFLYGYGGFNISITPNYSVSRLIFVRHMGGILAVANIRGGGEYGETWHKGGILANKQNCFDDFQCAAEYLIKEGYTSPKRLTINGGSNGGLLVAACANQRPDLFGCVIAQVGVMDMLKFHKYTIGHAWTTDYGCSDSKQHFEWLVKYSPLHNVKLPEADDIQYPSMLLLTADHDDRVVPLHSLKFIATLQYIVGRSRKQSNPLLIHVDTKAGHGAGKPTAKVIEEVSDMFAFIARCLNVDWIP
Description: Inhibition of recombinant human Prolyl oligopeptidase expressed in Escherichia coli expression system using (Z)-Gly-Pro-p-nitroanilide as substrate preincubated with enzyme for 5 mins followed by substrate addition and measured for 30 mins by spectrophotometric analysis

Acetylcholinesterase [1] = target: T2, Acetylcholinesterase (Homo sapiens, UniProt P22303); assay: Inhibition of recombinant human acetylcholinesterase using acetylthiocholine iodide as substrate preincubated with enzyme for 5 mins followed by substrate addition and measured at 2 mins interval by Ellman's method
[2] = Antioxidant activity assessed as radical scavenging activity measured after 30 mins by microplate reader based DPPH assay; assay type: functional
in vitro = details: PAMPA, pH 7.4
Description: Permeability of the compound at pH 7.4 measured after 6 hrs by PAMPA method

[3] = Inhibition of HFIP-pretreated Tau (306 to 336) (unknown origin) self-aggregation at 25 uM measured at interval of 10 mins for overnight with 1 min shaking by thioflavin-T fluorescence method; details: Homo sapiens
[4] = Antioxidant activity assessed as radical scavenging activity incubated for 20 mins by DPPH assay based UV spectrophotometer analysis; assay type: functional
Acetylcholinesterase [5] = target: T2, Acetylcholinesterase; assay: Noncompetitive inhibition of human acetylcholinesterase assessed as affinity towards free enzyme using acetylthiocholine iodide as substrate measured by Ellman's method based Lineweaver-Burk plot analysis
Acetylcholinesterase [6] = target: T2, Acetylcholinesterase; assay: Noncompetitive inhibition of human acetylcholinesterase assessed as decrease in apparent Vmax with unchanged Km using acetylthiocholine iodide as substrate by Lineweaver-Burk plot analysis
[7] = Cricetulus griseus, CHO-K1, 24 h, read-out: IC50

T2 sequence (P22303 whole entry): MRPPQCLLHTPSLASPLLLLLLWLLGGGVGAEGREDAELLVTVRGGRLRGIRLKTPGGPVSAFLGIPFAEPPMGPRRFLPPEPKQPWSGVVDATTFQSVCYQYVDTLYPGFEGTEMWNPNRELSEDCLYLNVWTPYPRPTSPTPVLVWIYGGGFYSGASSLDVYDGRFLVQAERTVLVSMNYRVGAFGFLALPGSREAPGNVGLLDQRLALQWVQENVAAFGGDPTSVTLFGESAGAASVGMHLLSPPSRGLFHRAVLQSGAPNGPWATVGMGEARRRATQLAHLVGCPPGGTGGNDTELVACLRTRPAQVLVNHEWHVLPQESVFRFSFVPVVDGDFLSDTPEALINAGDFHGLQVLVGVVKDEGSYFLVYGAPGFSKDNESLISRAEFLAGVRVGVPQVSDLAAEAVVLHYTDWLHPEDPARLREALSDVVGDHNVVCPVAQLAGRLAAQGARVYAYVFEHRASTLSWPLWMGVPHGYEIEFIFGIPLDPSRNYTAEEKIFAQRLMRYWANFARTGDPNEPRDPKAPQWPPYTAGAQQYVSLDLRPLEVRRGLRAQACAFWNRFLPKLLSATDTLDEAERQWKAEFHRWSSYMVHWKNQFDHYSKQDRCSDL

## COc1ccc2cc3[n+](cc2c1OCc1ccccc1Br)CCc1cc2c(cc1-3)OCO2
CHO-K1; [7]
  IC50: 26 µM
Prolyl endopeptidase
  IC50: 38.9 µM
Acetylcholinesterase [1]
  IC50: 1.7 µM
[2]
  EC50: > 6000 µM

## COc1ccc2cc3[n+](cc2c1OCc1ccc(C)cc1)CCc1cc2c(cc1-3)OCO2.[Br-]
CHO-K1; [7]
  IC50: 43 µM
Prolyl endopeptidase
  IC50: 10.7 µM
In vitro
  Papp at 6 h: 0.8 ×10⁻⁶ cm/s
Acetylcholinesterase [1]
  IC50: 75.8 µM
[3]
  inhibition: 31.9%
[2]
  EC50: 1900 µM

## COc1ccc2cc3[n+](cc2c1O)CCc1cc2c(cc1-3)OCO2 [BERBERRUBINE CHLORIDE]
[4]
  EC50: 87 µM

## COc1ccc2cc3[n+](cc2c1OCc1ccc(Cl)cc1)CCc1cc2c(cc1-3)OCO2
CHO-K1; [7]
  IC50: 13 µM
Prolyl endopeptidase
  IC50: 39.4 µM
Acetylcholinesterase [1]
  IC50: 2.5 µM
[2]
  EC50: 5200 µM

## C[C@H]1c2cccc(O)c2C(=O)C2=C(O)[C@]3(O)C(=O)C(C(N)=O)=C(O)[C@@H](N(C)C)[C@@H]3[C@@H](O)[C@@H]21
[3]
  inhibition: 39.6%

## COc1ccc2cc3[n+](cc2c1OCc1ccc(SC)cc1)CCc1cc2c(cc1-3)OCO2
CHO-K1; [7]
  IC50: 43 µM
Prolyl endopeptidase
  IC50: 34 µM
Acetylcholinesterase [1]
  IC50: 2.6 µM
[2]
  EC50: > 6000 µM

## COc1ccc2cc3[n+](cc2c1OCc1cccc(Br)c1)CCc1cc2c(cc1-3)OCO2
CHO-K1; [7]
  IC50: 32 µM
Prolyl endopeptidase
  IC50: 59.6 µM
Acetylcholinesterase [1]
  IC50: 2.7 µM
[2]
  EC50: 2200 µM

## COc1ccc2cc3[n+](cc2c1OCc1cccc(C)c1)CCc1cc2c(cc1-3)OCO2
CHO-K1; [7]
  IC50: 58 µM
Prolyl endopeptidase
  IC50: 79.1 µM
Acetylcholinesterase [1]
  IC50: 7.3 µM
[2]
  EC50: 1200 µM

## COc1ccc2cc3[n+](cc2c1OCc1cccc([N+](=O)[O-])c1)CCc1cc2c(cc1-3)OCO2.[Br-]
CHO-K1; [7]
  IC50: 30 µM
Prolyl endopeptidase
  IC50: 24.7 µM
In vitro
  Papp at 6 h: 1.2 ×10⁻⁶ cm/s
Acetylcholinesterase [1]
  IC50: 1.45 µM
[2]
  EC50: 5600 µM

## COc1ccc2cc3[n+](cc2c1OCc1ccc(Br)cc1)CCc1cc2c(cc1-3)OCO2.[Br-]
CHO-K1; [7]
  IC50: 48 µM
Prolyl endopeptidase
  IC50: 19.4 µM
In vitro
  Papp at 6 h: 0.6 ×10⁻⁶ cm/s
Acetylcholinesterase [1]
  IC50: 3.3 µM
[2]
  EC50: > 6000 µM

## COc1ccc2cc3[n+](cc2c1OCc1cc(C)cc(C)c1)CCc1cc2c(cc1-3)OCO2
CHO-K1; [7]
  IC50: 23 µM
Prolyl endopeptidase
  IC50: 58.7 µM
Acetylcholinesterase [1]
  IC50: 2.5 µM
[2]
  EC50: 990 µM

## COc1ccc2cc3[n+](cc2c1OCc1ccccc1)CCc1cc2c(cc1-3)OCO2.[Br-]
CHO-K1; [7]
  IC50: 55 µM
Prolyl endopeptidase
  IC50: 25.4 µM
In vitro
  Papp at 6 h: 0.4 ×10⁻⁶ cm/s
Acetylcholinesterase [1]
  IC50: 5 µM
[2]
  EC50: 1900 µM

## COc1ccc2cc3[n+](cc2c1OCc1ccc(C(F)(F)F)cc1)CCc1cc2c(cc1-3)OCO2.[Br-]
Acetylcholinesterase [5]
  Ki: 0.000456 µM
CHO-K1; [7]
  IC50: 21 µM
Prolyl endopeptidase
  IC50: 27.4 µM
In vitro
  Papp at 6 h: 0.8 ×10⁻⁶ cm/s
Acetylcholinesterase [1]
  IC50: 1.3 µM
Acetylcholinesterase [6]
  inhibition: Active
[2]
  EC50: 5300 µM

## COc1ccc2cc3[n+](cc2c1OCc1cccc(Cl)c1)CCc1cc2c(cc1-3)OCO2
CHO-K1; [7]
  IC50: 30 µM
Prolyl endopeptidase
  IC50: 67 µM
Acetylcholinesterase [1]
  IC50: 1.9 µM
[2]
  EC50: 5400 µM

## COc1ccc2cc3[n+](cc2c1OCc1ccc([N+](=O)[O-])cc1)CCc1cc2c(cc1-3)OCO2.[Br-]
CHO-K1; cho-k1
  IC50: Nd(Insoluble)
Prolyl endopeptidase
  IC50: 21.2 µM
In vitro
  Papp at 6 h: 1.4 ×10⁻⁶ cm/s
Acetylcholinesterase [1]
  IC50: 0.99 µM
[2]
  EC50: 5000 µM

## COc1ccc2cc3[n+](cc2c1OCc1ccc(C(C)C)cc1)CCc1cc2c(cc1-3)OCO2
CHO-K1; [7]
  IC50: 17 µM
Prolyl endopeptidase
  IC50: 53.3 µM
Acetylcholinesterase [1]
  IC50: 4.2 µM
[2]
  EC50: 1300 µM

## COc1ccc2cc3[n+](cc2c1OCc1ccc(Cl)c(Cl)c1)CCc1cc2c(cc1-3)OCO2
CHO-K1; [7]
  IC50: 9 µM
Prolyl endopeptidase
  IC50: 52.7 µM
Acetylcholinesterase [1]
  IC50: 1.22 µM
[2]
  EC50: > 6000 µM

## Cc1c(C)c2c(c(C)c1O)CCC(C)(C(=O)O)O2 (configuration not stated) [TROLOX]
[2]
  EC50: 16.2 µM

## COc1ccc2cc3[n+](cc2c1OCc1ccc2ccccc2c1)CCc1cc2c(cc1-3)OCO2.[Br-]
CHO-K1; [7]
  IC50: 14 µM
Prolyl endopeptidase
  IC50: 28.5 µM
In vitro
  Papp at 6 h: 0.8 ×10⁻⁶ cm/s
Acetylcholinesterase [1]
  IC50: 1.5 µM
[3]
  inhibition: 62%
[2]
  EC50: > 6000 µM

## COc1cccc(COc2c(OC)ccc3cc4[n+](cc23)CCc2cc3c(cc2-4)OCO3)c1
CHO-K1; [7]
  IC50: 46 µM
Prolyl endopeptidase
  IC50: 40.4 µM
Acetylcholinesterase [1]
  IC50: 3.5 µM
[2]
  EC50: 5300 µM

## COc1ccc(COc2c(OC)ccc3cc4[n+](cc23)CCc2cc3c(cc2-4)OCO3)cc1.[Br-]
CHO-K1; [7]
  IC50: 42 µM
Prolyl endopeptidase
  IC50: 40.5 µM
In vitro
  Papp at 6 h: 4.8 ×10⁻⁶ cm/s
Acetylcholinesterase [1]
  IC50: 5.3 µM
[2]
  EC50: > 6000 µM

## CC(=O)N[C@@H](CS)C(=O)O [ACETYLCYSTEINE]
[2]
  EC50: 27.9 µM

## COc1ccc2cc3[n+](cc2c1OCc1ccc(C#N)cc1)CCc1cc2c(cc1-3)OCO2
CHO-K1; [7]
  IC50: 292 µM
Prolyl endopeptidase
  IC50: 36.5 µM
Acetylcholinesterase [1]
  IC50: 1.7 µM
[2]
  EC50: > 6000 µM

## COc1ccc2cc3[n+](cc2c1OCc1ccccc1C)CCc1cc2c(cc1-3)OCO2
CHO-K1; [7]
  IC50: 55 µM
Prolyl endopeptidase
  IC50: 71.1 µM
Acetylcholinesterase [1]
  IC50: 10.4 µM
[2]
  EC50: 1200 µM

## COc1ccc2cc3[n+](cc2c1OC)CCc1cc2c(cc1-3)OCO2.[Cl-] [BERBERINE CHLORIDE]
CHO-K1; [7]
  IC50: 336 µM
In vitro
  Papp at 6 h: 0.2 ×10⁻⁶ cm/s
[3]
  inhibition: 25%
[2]
  EC50: 5500 µM

## COc1ccc2cc3[n+](cc2c1OC(C)c1ccccc1)CCc1cc2c(cc1-3)OCO2.[Br-] (configuration not stated)
CHO-K1; [7]
  IC50: 42 µM
Prolyl endopeptidase
  IC50: 29.5 µM
In vitro
  Papp at 6 h: 0.4 ×10⁻⁶ cm/s
Acetylcholinesterase [1]
  IC50: 0.79 µM
[3]
  inhibition: 38.3%
[2]
  EC50: 5600 µM

## COC(=O)c1ccc(COc2c(OC)ccc3cc4[n+](cc23)CCc2cc3c(cc2-4)OCO3)cc1
CHO-K1; [7]
  IC50: 50 µM
Prolyl endopeptidase
  IC50: 47.6 µM
Acetylcholinesterase [1]
  IC50: 2.6 µM
[2]
  EC50: 5300 µM

## Nc1c2c(nc3ccccc13)CCCC2 [TACRINE]
In vitro
  Papp at 6 h: 6 ×10⁻⁶ cm/s

## CO/N=C(\C(=O)N[C@@H]1C(=O)N2C(C(=O)O)=C(COC(N)=O)CS[C@H]12)c1ccco1 [CEFUROXIME]
In vitro
  Papp at 6 h: 0.3 ×10⁻⁶ cm/s
